According to PubChem BioAssay (NCI):
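Values below derive from 48-hour exposures of cells grown in 96-well plates, with endpoints linearly interpolated between the two concentrations bracketing the appropriate inhibition level. Definition used: TGI = concentration required for complete inhibition of growth.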

Columns and labels:
Assay in all cases: inhibition of tumour cell growth, NCI panel, 48 h
BT-549 breast = test system: BT-549 breast
HT29 colon = test system: HT29 colon
SK-MEL-2 melanoma = test system: SK-MEL-2 melanoma
CAKI-1 renal = test system: CAKI-1 renal
MALME-3M melanoma = test system: MALME-3M melanoma
CCRF-CEM leukemia = test system: CCRF-CEM leukemia
786-0 renal = test system: 786-0 renal
UO-31 renal = test system: UO-31 renal
HCT-116 colon = test system: HCT-116 colon
NCI-H522 lung = test system: NCI-H522 lung
SF-268 CNS = test system: SF-268 CNS
SK-OV-3 ovarian = test system: SK-OV-3 ovarian
LOX IMVI melanoma = test system: LOX IMVI melanoma
HCC-2998 colon = test system: HCC-2998 colon
EKVX NSCLC = test system: EKVX NSCLC
NCI-H226 lung = test system: NCI-H226 lung
MDA-MB-435 = test system: MDA-MB-435
HS 578T breast = test system: HS 578T breast
PC-3 prostate = test system: PC-3 prostate
HCT-15 colon = test system: HCT-15 colon
COLO 205 colon = test system: COLO 205 colon
IGROV1 ovarian = test system: IGROV1 ovarian
SK-MEL-5 melanoma = test system: SK-MEL-5 melanoma
RPMI-8226 leukemia = test system: RPMI-8226 leukemia
OVCAR-8 ovarian = test system: OVCAR-8 ovarian
SW-620 colon = test system: SW-620 colon
HL-60(TB) leukemia = test system: HL-60(TB) leukemia
HOP-92 NSCLC = test system: HOP-92 NSCLC
SNB-19 CNS = test system: SNB-19 CNS
A549 NSCLC = test system: A549 NSCLC
MCF7 breast = test system: MCF7 breast
MOLT-4 leukemia = test system: MOLT-4 leukemia
ACHN renal = test system: ACHN renal
TK-10 renal = test system: TK-10 renal
M14 melanoma = test system: M14 melanoma
SK-MEL-28 melanoma = test system: SK-MEL-28 melanoma
U251 CNS = test system: U251 CNS
HOP-62 NSCLC = test system: HOP-62 NSCLC
SF-539 CNS = test system: SF-539 CNS
SNB-75 CNS = test system: SNB-75 CNS
T-47D breast = test system: T-47D breast
SF-295 CNS = test system: SF-295 CNS
DU-145 prostate = test system: DU-145 prostate
OVCAR-4 ovarian = test system: OVCAR-4 ovarian
NCI/ADR-RES ovarian = test system: NCI/ADR-RES ovarian
KM12 colon = test system: KM12 colon
UACC-257 melanoma = test system: UACC-257 melanoma
MDA-MB-231 breast = test system: MDA-MB-231 breast
RXF 393 renal = test system: RXF 393 renal
MDA-N = test system: MDA-N
NCI-H23 lung = test system: NCI-H23 lung
OVCAR-5 ovarian = test system: OVCAR-5 ovarian
SR leukemia = test system: SR leukemia
A498 renal = test system: A498 renal
OVCAR-3 ovarian = test system: OVCAR-3 ovarian
SN12C renal = test system: SN12C renal
UACC-62 melanoma = test system: UACC-62 melanoma
K-562 leukemia = test system: K-562 leukemia
NCI-H460 lung = test system: NCI-H460 lung

## NS(=O)(=O)c1ccc(NCc2cccc3c(=O)c4ccc(Cl)cc4oc23)cc1
BT-549 breast
  TGI: > 96.7 µM
HT29 colon
  TGI: > 100 µM
SK-MEL-2 melanoma
  TGI: > 100 µM
CAKI-1 renal
  TGI: > 85.7 µM
MALME-3M melanoma
  TGI: > 66.5 µM
CCRF-CEM leukemia
  TGI: > 52.6 µM
786-0 renal
  TGI: > 100 µM
UO-31 renal
  TGI: > 93.2 µM
HCT-116 colon
  TGI: > 100 µM
NCI-H522 lung
  TGI: 99.7 µM
SF-268 CNS
  TGI: 64.4 µM
SK-OV-3 ovarian
  TGI: > 100 µM
LOX IMVI melanoma
  TGI: > 100 µM
HCC-2998 colon
  TGI: > 100 µM
EKVX NSCLC
  TGI: > 65.5 µM
NCI-H226 lung
  TGI: > 100 µM
MDA-MB-435
  TGI: > 100 µM
HS 578T breast
  TGI: 82.3 µM
PC-3 prostate
  TGI: > 100 µM
HCT-15 colon
  TGI: > 100 µM
COLO 205 colon
  TGI: > 100 µM
IGROV1 ovarian
  TGI: > 68.8 µM
SK-MEL-5 melanoma
  TGI: > 100 µM
RPMI-8226 leukemia
  TGI: > 92.2 µM
OVCAR-8 ovarian
  TGI: > 67.2 µM
SW-620 colon
  TGI: > 100 µM
HL-60(TB) leukemia
  TGI: 9.47 µM
HOP-92 NSCLC
  TGI: 57 µM
SNB-19 CNS
  TGI: > 61.8 µM
A549 NSCLC
  TGI: > 100 µM
MCF7 breast
  TGI: > 67 µM
MOLT-4 leukemia
  TGI: > 100 µM
ACHN renal
  TGI: > 100 µM
TK-10 renal
  TGI: > 100 µM
M14 melanoma
  TGI: > 93.1 µM
SK-MEL-28 melanoma
  TGI: > 100 µM
U251 CNS
  TGI: > 100 µM
HOP-62 NSCLC
  TGI: > 100 µM
SF-539 CNS
  TGI: > 64.6 µM
SNB-75 CNS
  TGI: > 96.6 µM
T-47D breast
  TGI: > 100 µM
SF-295 CNS
  TGI: > 100 µM
DU-145 prostate
  TGI: > 100 µM
OVCAR-4 ovarian
  TGI: > 100 µM
NCI/ADR-RES ovarian
  TGI: > 100 µM
KM12 colon
  TGI: > 70.7 µM
UACC-257 melanoma
  TGI: > 100 µM
MDA-MB-231 breast
  TGI: > 100 µM
RXF 393 renal
  TGI: > 100 µM
MDA-N
  TGI: > 80.2 µM
NCI-H23 lung
  TGI: > 80 µM
OVCAR-5 ovarian
  TGI: > 100 µM
SR leukemia
  TGI: > 51.3 µM
A498 renal
  TGI: > 100 µM
OVCAR-3 ovarian
  TGI: > 100 µM
SN12C renal
  TGI: > 100 µM
UACC-62 melanoma
  TGI: > 100 µM
K-562 leukemia
  TGI: > 100 µM

## c1c[nH]c(CN2CCN(Cc3ncc[nH]3)CC2)n1
BT-549 breast
  TGI: > 100 µM
HT29 colon
  TGI: > 100 µM
SK-MEL-2 melanoma
  TGI: > 100 µM
CAKI-1 renal
  TGI: > 100 µM
MALME-3M melanoma
  TGI: > 100 µM
CCRF-CEM leukemia
  TGI: > 100 µM
786-0 renal
  TGI: > 100 µM
UO-31 renal
  TGI: > 100 µM
HCT-116 colon
  TGI: > 100 µM
NCI-H522 lung
  TGI: > 100 µM
SF-268 CNS
  TGI: > 100 µM
SK-OV-3 ovarian
  TGI: > 100 µM
LOX IMVI melanoma
  TGI: > 100 µM
EKVX NSCLC
  TGI: > 100 µM
NCI-H226 lung
  TGI: > 100 µM
MDA-MB-435
  TGI: > 100 µM
HS 578T breast
  TGI: > 100 µM
PC-3 prostate
  TGI: > 100 µM
HCT-15 colon
  TGI: > 100 µM
COLO 205 colon
  TGI: > 100 µM
IGROV1 ovarian
  TGI: > 100 µM
SK-MEL-5 melanoma
  TGI: > 100 µM
RPMI-8226 leukemia
  TGI: > 100 µM
OVCAR-8 ovarian
  TGI: > 100 µM
SW-620 colon
  TGI: > 100 µM
HL-60(TB) leukemia
  TGI: > 100 µM
HOP-92 NSCLC
  TGI: > 100 µM
SNB-19 CNS
  TGI: > 100 µM
A549 NSCLC
  TGI: > 100 µM
MCF7 breast
  TGI: > 100 µM
MOLT-4 leukemia
  TGI: > 100 µM
ACHN renal
  TGI: > 100 µM
TK-10 renal
  TGI: > 100 µM
M14 melanoma
  TGI: > 100 µM
SK-MEL-28 melanoma
  TGI: > 100 µM
U251 CNS
  TGI: > 100 µM
HOP-62 NSCLC
  TGI: > 100 µM
SF-539 CNS
  TGI: > 100 µM
SNB-75 CNS
  TGI: > 100 µM
T-47D breast
  TGI: > 100 µM
SF-295 CNS
  TGI: > 100 µM
DU-145 prostate
  TGI: > 100 µM
OVCAR-4 ovarian
  TGI: > 100 µM
NCI/ADR-RES ovarian
  TGI: > 100 µM
KM12 colon
  TGI: > 100 µM
UACC-257 melanoma
  TGI: > 100 µM
MDA-MB-231 breast
  TGI: > 100 µM
RXF 393 renal
  TGI: > 100 µM
MDA-N
  TGI: > 100 µM
NCI-H23 lung
  TGI: > 100 µM
OVCAR-5 ovarian
  TGI: > 100 µM
SR leukemia
  TGI: > 100 µM
A498 renal
  TGI: > 100 µM
NCI-H460 lung
  TGI: > 100 µM
OVCAR-3 ovarian
  TGI: > 100 µM
SN12C renal
  TGI: > 100 µM
UACC-62 melanoma
  TGI: > 100 µM
